# Source: patent US6987127B2, “Regulation of NAD(P)H oxidase growth and transcription in melanoma cells” (Charlotte-Mecklenburg Hospital Authority, priority 2001, dated 2006)
# Key:
# NF-κB = conditions: M1619 cells, 50 μmol/L overnight; P<0.001 by densitometry
# AP-1 = conditions: M1619 cells, overnight, 10-20 μmoles/L
# [1] = test system: M1619 malignant melanoma cells; experiment: Proliferation of cultured cells with oxidase inhibitors (MTT assay); type: cell-based, human; conditions: for Melanoma growth: M1619, data not shown
# p65 component of NF-κB = conditions: M1619 cells, 50 μmol/L overnight
# NF-κB p65 = conditions: M1619 cells, 50 μmol/L overnight
# IκBα = conditions: M1619 cells, 25 μmoles/L overnight
# [2] = test system: cyclic-AMP responsive element (CRE); conditions: M1619 cells, overnight, 10, 15, 20 μmoles/L; P<0.001 vs untreated
# OCT-1 = conditions: M1619 cells, overnight, 10-20 μmoles/L
# [3] = test system: M1619 malignant melanoma cells; conditions: Brar and co-workers; cited from earlier work
# [4] = test system: H596 non-small-cell lung cancer cells; conditions: Brar et al. (2001); cited from earlier work
# M1619 cells = experiment: Proliferation after transfection of p22phox or NOX4 sense/antisense oligonucleotides (MTT assay); type: cell-based, human; conditions: 2 μg oligonucleotide, 6 hours transfection, 48 hours growth, P<0.01
compound,measurement,setting,value
"c1ccc2c(c1)[I+]c1ccccc1-2 [DPI, diphenylene iodonium]",Constitutive NF-κB DNA binding,NF-κB,greatly reduced
same,DNA binding to the AP-1 oligonucleotide consensus sequence,AP-1,does not inhibit
same,inhibition at 50 µM,"[1]; Homo sapiens, after 48 hours, highest dose (50 μmol/L), 10% FBS, P<0.001, read-out: Inhibition of M1619 malignant melanoma cell growth",86 ± 0.5%
same,Immunoreactive p65 in nuclear protein,p65 component of NF-κB,reduces immunoreactive p65 in nuclear protein
same,Constitutive nuclear translocation of NF-κB (anti-p65 staining in nuclei),NF-κB p65,reduces constitutive nuclear translocation of NF-κB
same,Phosphorylation of the NF-κB inhibitor IκBα (serine 32),IκBα,decreased phosphorylation
same,CRE DNA binding activity of nuclear protein,[2],inhibits CRE-binding activity in a dose-dependent manner
same,DNA binding to the OCT-1 oligonucleotide consensus sequence,OCT-1,does not inhibit
Oc1ncnc2[nH]ncc12 [allopurinol],Melanoma growth,[1]; 1 mmol/L,unaffected
O=c1oc2ccccc2c(O)c1Cc1c(O)c2ccccc2oc1=O [dicumarol],Cellular proliferation in M1619 malignant melanoma cells,[3],inhibition
same,Growth of H596 non-small-cell lung cancer cells,[4],inhibited growth
N=C(NCCC[C@H](N)C(=O)O)N[N+](=O)[O-] [ω-nitro-L-arginine],Melanoma growth,[1]; 100 μmol/L,unaffected
"NOX4 antisense oliogonucleotides: antisense 5′-AGCTCCTCCAGGACACAGCC-3′ based on NOX4 gene-specific sequence (listed as DNA, chemistry not given here)",Subsequent growth compared with sense oligonucleotides,M1619 cells,significantly reduced subsequent growth
"p22^phox antisense oliogonucleotides: previously reported antisense 5′-GATCTGCCCCATGGTGAGGACC-3′ for p22phox mRNA (listed as DNA, chemistry not given here)",Subsequent growth compared with sense oligonucleotides,M1619 cells,significantly reduced subsequent growth
